Data on 18 molecules can be found in ChEMBL document CHEMBL3400018, “One-pot catalyst free synthesis of novel kojic acid tagged 2-aryl/alkyl substituted-4H-chromenes and evaluation of their antimicrobial and anti-biofilm activities” (Bioorg Med Chem Lett, 2015).

Assay [1] deals with Bacillus subtilis. The assay is described as follows: Antimicrobial activity against Bacillus subtilis MTCC 121 after 24 hrs by well diffusion method. It counts as functional. The conditions noted are these: MTCC 121, 24 h. In general terms: Agar diffusion results depend on both activity and mobility in agar.
The test system of assay [2] is Micrococcus luteus. Description: Antimicrobial activity against Micrococcus luteus MTCC 2470 after 24 hrs by well diffusion method. It counts as functional. The following applies: MTCC 2470, 24 h.
For assay [3], the system named is Candida albicans. The assay is described as follows: Antimicrobial activity against Candida albicans MTCC 3017 after 24 hrs by well diffusion method. It counts as functional, organism-based.
Assay [4] concerns Escherichia coli. The assay is described as follows: Antimicrobial activity against Escherichia coli MTCC 739 after 24 hrs by well diffusion method. It counts as functional. The following applies: MTCC 739, 24 h.
Assay [5] concerns Raoultella planticola. The assay is described as follows: Antimicrobial activity against Klebsiella planticola MTCC 530 after 24 hrs by well diffusion method. It counts as functional. The following applies: MTCC 530, 24 h.
The subject of assay [6] is Pseudomonas aeruginosa. Description: Antimicrobial activity against Pseudomonas aeruginosa MTCC 2453 after 24 hrs by well diffusion method. It counts as functional. The conditions noted are these: MTCC 2453, 24 h.
In assay [7] the test system is Staphylococcus aureus. The assay is described as follows: Antimicrobial activity against Staphylococcus aureus MLS-16 MTCC 2940 after 24 hrs by well diffusion method. It counts as functional. The following applies: MLS-16 MTCC 2940, 24 h.
Assay [8] deals with Bacillus subtilis. The assay is described as follows: Antimicrobial activity against Bacillus subtilis MTCC 121 assessed as inhibition of biofilm formation after 24 hrs. The following applies: MTCC 121, 24 h. It counts as functional, organism-based.
Assay [9] relates to Staphylococcus aureus. The assay is described as follows: Antimicrobial activity against Staphylococcus aureus MLS-16 MTCC 2940 assessed as inhibition of biofilm formation after 24 hrs. The conditions noted are these: MLS-16, 24 h. It counts as functional, organism-based.
Assay [10] concerns Escherichia coli. The assay is described as follows: Antimicrobial activity against Escherichia coli MTCC 739 assessed as inhibition of biofilm formation after 24 hrs. It counts as functional, organism-based. The conditions noted are these: MTCC 739, 24 h.
For assay [11], the system named is Bacillus subtilis. Description: Bactericidal activity against Bacillus subtilis MTCC 121 after 24 hrs by Mueller Hinton agar plate assay. It counts as functional. The following applies: MTCC 121, 24 h.
The test system of assay [12] is Escherichia coli. The assay is described as follows: Bactericidal activity against Escherichia coli MTCC 739 after 24 hrs by Mueller Hinton agar plate assay. The conditions noted are these: MTCC 739, 24 h. It counts as functional.
Assay [13] relates to Staphylococcus aureus. The assay is described as follows: Bactericidal activity against Staphylococcus aureus MLS-16 MTCC 2940 after 24 hrs by Mueller Hinton agar plate assay. It counts as functional. The following applies: MLS-16, 24 h.

In brackets after ≈: the same amount, converted by molar mass. Activity calls are given as the source filed them. Where only a bound is given, the exact number is not on record here.

By MIC is commonly meant the lowest concentration found to suppress growth. For orientation: IC50 means the point on the concentration scale where inhibition reaches its midpoint. A word on the MBC: it is the smallest concentration meeting the test's criterion for killing. Lower therefore signals more potent killing.

For the molecule `O=c1cc(CO)oc(C2C=C(c3ccccc3Br)Oc3ccccc32)c1O` (configuration not stated), the MIC in assay [1], in assay [2], in assay [4], in assay [5], in assay [6] and in assay [7] was above 125 µg/mL throughout. Besides, in assay [3], the MIC entry was “inactive”.

`CC[C@H]1OC(=O)[C@H](C)[C@@H](O[C@H]2C[C@@](C)(OC)[C@@H](O)[C@H](C)O2)[C@H](C)[C@@H](O[C@@H]2O[C@H](C)C[C@H](N(C)C)[C@H]2O)[C@](C)(O)C[C@@H](C)C(=O)[C@H](C)[C@@H](O)[C@]1(C)O` [ERYTHROMYCIN]: the IC50 in assay [8] stood at 0.19 µg/mL (≈ 0.259 µM); in assay [9], 0.23 µg/mL (≈ 0.313 µM); in assay [10], 0.31 µg/mL (≈ 0.422 µM).

Take `O=c1cc(CO)oc(C2C=C(c3ccccc3)Oc3ccc(Br)cc32)c1O` (configuration not stated): the minimal inhibitory concentration (MIC) in assay [1], in assay [2], in assay [4], in assay [5], in [6] and in [7] was above 125 µg/mL in each case. Moreover, the MIC entry in [3] is “inactive”.

As to `O=c1cc(CO)oc(C2C=C(c3ccccc3)Oc3ccc(Cl)cc32)c1O` (configuration not stated), the minimal inhibitory concentration (MIC) in assay [1], in assay [2], in assay [4], in assay [5], in assay [6] and in assay [7] was above 125 µg/mL each time. Besides, in assay [3], the MIC result was “inactive”.

As to `O=c1cc(CO)oc(C2C=C(c3ccccc3)Oc3ccccc32)c1O` (configuration not stated), the minimum bactericidal concentration (MBC) was determined as 7.8 µg/mL (≈ 22.4 µM) in assay [11], 7.8 µg/mL (≈ 22.4 µM) in assay [12] and 15.6 µg/mL (≈ 44.8 µM) in assay [13]. Also, the MIC in [1] was 3.9 µg/mL (≈ 11.2 µM); in assay [2] it was above 125 µg/mL; in [4], 7.8 µg/mL (≈ 22.4 µM); in assay [5], above 125 µg/mL; in assay [6], above 125 µg/mL; in assay [7] it was 7.8 µg/mL (≈ 22.4 µM). In addition, the IC50 in [8] was 3.4 µg/mL (≈ 9.76 µM); in assay [9], 8.3 µg/mL (≈ 23.8 µM); in assay [10], 5.2 µg/mL (≈ 14.9 µM). The MIC result in [3] was “inactive”.

Turning to `O=C(O)c1cn(C2CC2)c2cc(N3CCNCC3)c(F)cc2c1=O` [CIPROFLOXACIN], the minimum bactericidal concentration (MBC) was 0.9 µg/mL (≈ 2.72 µM) in assay [11], 1.9 µg/mL (≈ 5.73 µM) in [12] and 1.9 µg/mL (≈ 5.73 µM) in [13]. Further, the minimal inhibitory concentration (MIC) in assay [1], in assay [2], in assay [4], in [5], in [6] and in assay [7] was 0.9 µg/mL (≈ 2.72 µM) throughout. Further, in [3], the MIC result was “inactive”.

`O=c1cc(CO)oc(C2C=C(c3ccc4ccccc4c3)Oc3ccccc32)c1O` (configuration not stated): the MIC in [1], in assay [2], in assay [4], in [5], in [6] and in assay [7] was above 125 µg/mL each time. Further, the MIC entry in [3] was “inactive”.

Turning to `O=c1cc(CO)oc(C2C=C(c3ccc4c(c3)OCO4)Oc3ccccc32)c1O` (configuration not stated), the minimal bactericidal concentration (MBC) was 15.6 µg/mL (≈ 39.8 µM) in assay [11], 31.2 µg/mL (≈ 79.5 µM) in assay [12] and above 125 µg/mL in assay [13]. Further, the MIC in assay [1] was 7.8 µg/mL (≈ 19.9 µM); in assay [2], above 125 µg/mL; in assay [4] it was 15.6 µg/mL (≈ 39.8 µM); in assay [5] it was above 125 µg/mL; in assay [6] it was above 125 µg/mL; in assay [7], above 125 µg/mL. Moreover, the concentration for half-maximal inhibition (IC50) is 8.1 µg/mL (≈ 20.6 µM) in assay [8], above 125 µg/mL in [9] and 17.8 µg/mL (≈ 45.4 µM) in assay [10]. In addition, the MIC entry in assay [3] was “inactive”.

As for `O=c1cc(CO)oc(C2C=C(c3ccccc3)Oc3c(Cl)cc(Br)cc32)c1O` (configuration not stated), the MIC in assay [1], in assay [2], in assay [4], in assay [5], in [6] and in assay [7] was above 125 µg/mL in each case. Besides, the MIC entry in [3] was “inactive”.

Regarding `O=c1cc(CO)oc(C2C=C(c3cccc(O)c3)Oc3ccccc32)c1O` (configuration not stated), the minimum inhibitory concentration (MIC) in assay [1], in assay [2], in [4], in assay [5], in [6] and in assay [7] was above 125 µg/mL each time. Further, in [3], the MIC entry is “inactive”.

On to `O=c1cc(CO)oc(C2C=C(c3ccc(Cl)cc3)Oc3ccccc32)c1O` (configuration not stated), for which the MBC in assay [11] was 7.8 µg/mL (≈ 20.4 µM); in assay [12] it was above 125 µg/mL; in assay [13], 15.6 µg/mL (≈ 40.8 µM). The MIC in [1] was 7.8 µg/mL (≈ 20.4 µM); in assay [2], above 125 µg/mL; in [4], above 125 µg/mL; in [5] it was above 125 µg/mL; in [6], above 125 µg/mL; in assay [7], 15.6 µg/mL (≈ 40.8 µM). Moreover, the IC50 in assay [8] was 3.6 µg/mL (≈ 9.4 µM); in [9] it was 9.1 µg/mL (≈ 23.8 µM); in assay [10], above 125 µg/mL. The MIC entry in assay [3] is “inactive”.

Consider `COc1ccc(C2=CC(c3oc(CO)cc(=O)c3O)c3ccccc3O2)cc1` (configuration not stated), for which the values for the MBC in [11], in [12] and in [13] were 15.6 µg/mL (≈ 41.2 µM), 7.8 µg/mL (≈ 20.6 µM) and 31.2 µg/mL (≈ 82.5 µM), respectively. Further, the MIC in assay [1] was 7.8 µg/mL (≈ 20.6 µM); in assay [2] it was above 125 µg/mL; in [4], 7.8 µg/mL (≈ 20.6 µM); in assay [5] it was above 125 µg/mL; in assay [6], above 125 µg/mL; in assay [7], 15.6 µg/mL (≈ 41.2 µM). Also, the IC50 in [8] was 10.2 µg/mL (≈ 27 µM); in assay [9] it was 15.4 µg/mL (≈ 40.7 µM); in assay [10], 6.1 µg/mL (≈ 16.1 µM). For the same molecule, the MIC entry in assay [3] was “inactive”.

With `Cc1ccc(C2=CC(c3oc(CO)cc(=O)c3O)c3ccccc3O2)cc1` (configuration not stated), the results for the minimum bactericidal concentration (MBC) in assay [11], in [12] and in assay [13] were 31.2 µg/mL (≈ 86.1 µM), 15.6 µg/mL (≈ 43 µM) and 31.2 µg/mL (≈ 86.1 µM), respectively. Moreover, the minimum inhibitory concentration (MIC) in assay [1] is 15.6 µg/mL (≈ 43 µM); in assay [2] it was above 125 µg/mL; in assay [4], 7.8 µg/mL (≈ 21.5 µM); in assay [5], above 125 µg/mL; in [6], above 125 µg/mL; in [7], 15.6 µg/mL (≈ 43 µM). Further, the IC50 in assay [8] is 20.1 µg/mL (≈ 55.5 µM); in [9], 18.6 µg/mL (≈ 51.3 µM); in assay [10] it was 9.1 µg/mL (≈ 25.1 µM). Also, the MIC result in [3] is “inactive”.

Take `O=c1cc(CO)oc(C2C=C(c3cccs3)Oc3ccccc32)c1O` (configuration not stated): the values for the minimal bactericidal concentration (MBC) in assay [11], in [12] and in assay [13] were 7.8 µg/mL (≈ 22 µM), 31.2 µg/mL (≈ 88 µM) and 15.6 µg/mL (≈ 44 µM), respectively. In addition, the MIC in assay [1] is 7.8 µg/mL (≈ 22 µM); in [2], above 125 µg/mL; in [4], 15.6 µg/mL (≈ 44 µM); in [5], above 125 µg/mL; in [6], above 125 µg/mL; in [7], 7.8 µg/mL (≈ 22 µM). Also, the half-inhibitory concentration (IC50) came to 4.6 µg/mL (≈ 13 µM) in assay [8], 8.8 µg/mL (≈ 24.8 µM) in assay [9] and 18.2 µg/mL (≈ 51.4 µM) in assay [10]. For the same molecule, the MIC result in [3] is “inactive”.

On to `CC1=CC(c2oc(CO)cc(=O)c2O)c2ccccc2O1` (configuration not stated), for which the minimal inhibitory concentration (MIC) in assay [1], in assay [2], in assay [4], in [5], in [6] and in assay [7] was above 125 µg/mL each time. Further, in [3], the MIC result was “inactive”.

`O=c1cc(CO)oc(C2C=C(c3cc(F)cc(F)c3)Oc3ccccc32)c1O` (configuration not stated): the MIC in assay [1], in assay [2], in assay [4], in [5], in assay [6] and in assay [7] was above 125 µg/mL throughout. For the same molecule, the MIC result in [3] was “inactive”.

As to `CCC1=CC(c2oc(CO)cc(=O)c2O)c2ccccc2O1` (configuration not stated), the MIC in [1], in [2], in assay [4], in assay [5], in [6] and in assay [7] was above 125 µg/mL each time. In addition, in assay [3], the MIC entry is “inactive”.

With `CC(C)CC1=CC(c2oc(CO)cc(=O)c2O)c2ccccc2O1` (configuration not stated), the MBC in assay [11] is 15.6 µg/mL (≈ 47.5 µM); in assay [12] it was above 125 µg/mL; in assay [13] it was 15.6 µg/mL (≈ 47.5 µM). The MIC in [1] is 7.8 µg/mL (≈ 23.8 µM); in [2], above 125 µg/mL; in assay [4] it was above 125 µg/mL; in [5], above 125 µg/mL; in [6], above 125 µg/mL; in assay [7], 7.8 µg/mL (≈ 23.8 µM). In addition, the IC50 in [8] was 11.3 µg/mL (≈ 34.4 µM); in [9] it was 9.2 µg/mL (≈ 28 µM); in assay [10], above 125 µg/mL. Further, in [3], the MIC result was “inactive”.
